# Results as given in paper PMC10127257, “Engineering mutually orthogonal PylRS/tRNA pairs for dual encoding of functional histidine analogues” (Protein Science : A Publication of the Protein Society, 2023).
# Molecular target: T1, MaPylRS^IFGFF (Methanomethylophilus alvi, UniProt M9SC49, L125I/Y126F/M129G/V168F/Y206F)
# T1 construct: gene MMALV_11280; C-terminal 6-His tag; pET29, E. coli BL21(DE3), Ni-NTA
# Assay: X-ray crystallography, […] Å
# Type: binding
# Conditions: MgCl2, pH 8; three Mg2+ ions; triethylene glycol in the amino acid pocket
# T1 sequence (M9SC49 entry or part of it L125I/Y126F/M129G/V168F/Y206F): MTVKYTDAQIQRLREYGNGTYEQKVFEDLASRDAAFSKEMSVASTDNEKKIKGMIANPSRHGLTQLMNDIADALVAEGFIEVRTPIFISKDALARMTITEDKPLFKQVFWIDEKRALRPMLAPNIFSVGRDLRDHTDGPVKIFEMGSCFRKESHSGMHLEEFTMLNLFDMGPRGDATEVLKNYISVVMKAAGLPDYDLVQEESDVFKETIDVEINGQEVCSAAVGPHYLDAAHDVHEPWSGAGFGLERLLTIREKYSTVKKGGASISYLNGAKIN
smiles,measurement,value
Nc1ncnc2c1ncn2[C@@H]1O[C@H](COP(=O)(O)OP(=O)(O)NP(=O)(O)O)[C@@H](O)[C@H]1O [AMP-PNP],"X-ray crystallography, 1.8 Å","bound to the nonreactive ATP analogue adenylyl‐imidodiphosphate (AMP‐PNP, PDB: 8C49"
